Test results as given in ChEMBL document CHEMBL5356944, “Pharmacological overview of hederagenin and its derivatives” (RSC Med Chem, 2023).
Values after ≈ are worked out from the molar mass of the structure shown.

Tests used:
A549 [1] = assay: Cytotoxicity against human A549 cells assessed as reduction in cell viability measured after 24 hrs by MTT assay; type: functional, cell-based; conditions: A549, 24 h
Leishmania mexicana = assay: Antileishmanial activity against Leishmania mexicana amastigotes assessed as effective dose; conditions: read-out: ED50 (the source's name)
[2] = Anticancer activity against human KBV cells xenografted in nude mouse assessed as reduction in tumor weight at 10 mg/kg relative to control; type: functional; design: scale not given: the % may be the effect or the level left
[3] = Anticancer activity against human KBV cells assessed as cell survival rate in presence of paclitaxel
RAW264.7 [4] = assay: Anti-inflammatory activity against mouse RAW264.7 cells assessed as inhibition of LPS-induced NO production; type: functional, cell-based
[5] = Half life in rat plasma; type: ADME, cell-free
LoVo [6] = assay: Antiproliferative activity against human LoVo cells assessed as reduction in cell viability incubated for 24 hrs by MTT assay; type: functional, cell-based
NCI-H1299 = assay: Inhibition of colony formation in human NCI-H1299 cells assessed as reduction in number of colonies measured after 24 to 48 hrs by crystal violet staining based assay; type: functional; conditions: time 24-48 hrs
A549 [7] = assay: Cytotoxicity against human A549 cells assessed as reduction in cell growth incubated for 48 hrs by Alamar blue assay; type: functional, cell-based; conditions: A549, 48 h
Staphylococcus aureus = assay: Antibacterial activity against Staphylococcus aureus KCTC 503 assessed as reduction in bacterial growth; type: functional
HeLa = assay: Antiproliferative activity against human HeLa cells assessed as reduction in cell viability measured after 72 hrs by MTT assay; type: functional, cell-based
HepG2 = assay: Antiproliferative activity against human HepG2 cells assessed as reduction in cell viability after 48 hrs by MTT assay; type: functional, cell-based; conditions: HepG2, 48 h
[8] = Tmax in rat plasma; type: ADME, cell-free
Enterococcus faecalis = assay: Antibacterial activity against Enterococcus faecalis assessed as reduction in bacterial cell growth; type: functional
LoVo [9] = assay: Antiproliferative activity against human LoVo cells assessed as reduction in cell viability incubated for 48 hrs by MTT assay; type: functional, cell-based
Streptococcus mutans = assay: Antibacterial activity against Streptococcus mutans ATCC 25175 assessed as reduction in microbial growth after 24 hrs by agar well diffusion assay; type: functional
[10] = Elimination rate constant in rat plasma; type: ADME, cell-free
BT-20 = assay: Cytotoxicity against human BT-20 cells assessed as reduction in cell viability incubated for 48 hrs by Alamar blue assay; type: functional, cell-based; conditions: BT-20, 48 h
A549 [11] = assay: Inhibition of colony formation in human A549 cells measured after 24 to 48 hrs by crystal violet staining based analysis; type: functional; conditions: time 24-48 hrs
Toxoplasma gondii = assay: Antiparasitic activity against Toxoplasma gondii infected in human HeLa cells assessed as inhibition of cell growth relative to control; type: functional
T47D = assay: Cytotoxicity against human T47D cells assessed as reduction in cell viability measured after 72 hrs by MTT assay; type: functional, cell-based
RAW264.7 [12] = assay: Antiinflammatory activity in mouse RAW264.7 cells assessed as inhibition of LPS/IFNgamma-induced nitric oxide production; type: functional
A-431 = assay: Cytotoxicity against human A-431 cells assessed as reduction in cell viability measured after 72 hrs by MTT assay; type: functional, cell-based; conditions: A-431, 72 h
A549 [13] = assay: Cytotoxicity against human A549 cells assessed as reduction in cell viability measured after 72 hrs by MTT assay; type: functional, cell-based; conditions: A549, 72 h
HT-1080 = assay: Cytotoxicity against human HT-1080 cells assessed as reduction in cell viability measured after 72 hrs by MTT assay; type: functional, cell-based; conditions: HT-1080, 72 h
MCF7 = assay: Cytotoxicity against human MCF7 cells assessed as reduction in cell viability measured after 72 hrs by MTT assay; type: functional, cell-based; conditions: MCF7, 72 h
HL-60 = assay: Cytotoxicity against human HL-60 cells assessed as reduction in cell viability measured after 72 hrs by MTT assay; type: functional, cell-based; conditions: HL-60, 72 h
[14] = Cytotoxicity against mouse L929 cells assessed as reduction in cell viability; type: toxicity, cell-based
A549 [15] = assay: Antitumor activity against human A549 cells assessed as cell growth inhibition

Question: Which IC50 (A549 [1]) does the source give for Cc1cncc(C(=O)OCCOC(=O)[C@]23CCC(C)(C)C[C@H]2C2=CC[C@@H]4[C@@]5(C)CC[C@H](O)[C@@](C)(CO)[C@@H]5CC[C@@]4(C)[C@]2(C)CC3)n1 here?
Answer: 3.45 µM

Question: For CC1(C)CC[C@]2(N=C=O)CC[C@]3(C)C(=CC[C@@H]4[C@@]5(C)CC[C@@H]6OC(C)(C)OC[C@@]6(C)[C@@H]5CC[C@]43C)[C@@H]2C1, which EC50 (Leishmania mexicana) is on record?
Answer: 0.9 µM

Question: For CC1(C)CC[C@]2(NC(=O)N3CCC[C@H]3C(=O)O)CC[C@]3(C)C(=CC[C@@H]4[C@@]5(C)CC[C@@H]6OC(C)(C)OC[C@@]6(C)[C@@H]5CC[C@]43C)[C@@H]2C1, which EC50 (Leishmania mexicana) is on record?
Answer: 81.1 µM

Question: For CC1(C)CC[C@]2(C(=O)OCc3ccccc3)CC[C@]3(C)C(=CC[C@@H]4[C@@]5(C)Cc6nccnc6[C@@](C)(CO)[C@@H]5CC[C@]43C)[C@@H]2C1, which Activity [2] is on record?
Answer: 41.88%

Question: And the Activity [3]?
Answer: 25.34%

Question: Which IC50 (RAW264.7 [4]) does the source give for C[C@]12CC[C@H](O)[C@@](C)(CO)[C@@H]1CC[C@]1(C)[C@@H]2CC=C2[C@@H]3C[C@](C)(C(=O)O)[C@@H](O)C[C@]3(C(=O)O)CC[C@]21C here?
Answer: 0.078 µM

Question: Which EC50 (Leishmania mexicana) does the source give for C[C@H](O)[C@H]1OC(CC2OC[C@@]3(C)[C@@H]4CC[C@]5(C)[C@H](CC=C6[C@@H]7CC(C)(C)CC[C@]7(C(=O)O)CC[C@]65C)[C@@]4(C)CC[C@@H]3O2)[C@@H](O)[C@@H]1O (some centres undefined) here?
Answer: 10.3 µM

Question: For CC1(C)CC[C@]2(C(=O)O)CC[C@]3(C)C(=CC[C@@H]4[C@@]5(C)CC[C@@H]6OC(C)(C)OC[C@@]6(C)[C@@H]5CC[C@]43C)[C@@H]2C1, which EC50 (Leishmania mexicana) is on record?
Answer: 83.6 µM

Question: For CC(=O)OC[C@@]1(C)[C@@H]2CC[C@]3(C)[C@H](CC=C4[C@@H]5CC(C)(C)CC[C@]5(NC(=O)N5CCCC5)CC[C@]43C)[C@@]2(C)CC[C@@H]1O, which EC50 (Leishmania mexicana) is on record?
Answer: 10.4 µM

Question: For CC(=O)OC[C@H](OC(C)=O)[C@H](OC(C)=O)[C@@H](OC(C)=O)[C@@H]1OC[C@@]2(C)[C@@H]3CC[C@]4(C)[C@H](CC=C5[C@@H]6CC(C)(C)CC[C@]6(C(=O)O)CC[C@]54C)[C@@]3(C)CC[C@@H]2O1, which EC50 (Leishmania mexicana) is on record?
Answer: 7.2 µM

Question: Which EC50 (Leishmania mexicana) does the source give for CC1(C)CC[C@]2(C(=O)O)CC[C@]3(C)C(=CC[C@@H]4[C@@]5(C)CC[C@@H]6O[C@H](c7ccccc7)OC[C@@]6(C)[C@@H]5CC[C@]43C)[C@@H]2C1 here?
Answer: 10 µM

Question: With CC1(C)CC[C@]2(C(=O)OCc3ccccc3)CC[C@]3(C)C(=CC[C@@H]4[C@@]5(C)CC[C@@H]6O[C@H]([C@H]7O[C@H](O)[C@H](O)[C@@H](O)[C@@H]7O)OC[C@@]6(C)[C@@H]5CC[C@]43C)[C@@H]2C1 as the compound, how does the EC50 (Leishmania mexicana) read?
Answer: 6 µM

Question: Which EC50 (Leishmania mexicana) does the source give for CC1(C)CC[C@]2(C(=O)O)CC[C@]3(C)C(=CC[C@@H]4[C@@]5(C)CC[C@H](O)[C@@](C)(C=O)[C@@H]5CC[C@]43C)[C@@H]2C1 here?
Answer: 9.6 µM

Question: For CC1(C)CC[C@]2(NC(=O)N3CCCC3)CC[C@]3(C)C(=CC[C@@H]4[C@@]5(C)CC[C@@H]6OC(C)(C)OC[C@@]6(C)[C@@H]5CC[C@]43C)[C@@H]2C1, which EC50 (Leishmania mexicana) is on record?
Answer: 92 µM

Question: For CC1(C)CC[C@]2(C(=O)O)CC[C@]3(C)C(=CC[C@@H]4[C@@]5(C)CC[C@H](O)[C@@](C)(CO)[C@@H]5CC[C@]43C)[C@@H]2C1 [HEDERAGENIN], which half-life [5] is on record?
Answer: 44.1 min

Question: And the IC50 (LoVo [6])?
Answer: 1.39 µM

Question: And the INH (NCI-H1299)?
Answer: 20 µM

Question: And the IC50 (A549 [7])?
Answer: 26.2 µM

Question: What about the MIC (Staphylococcus aureus) of the same compound?
Answer: 16 µg/mL (≈ 33.8 µM)

Question: What about the IC50 (HeLa) of the same compound?
Answer: 17.4 µg/mL (≈ 36.9 µM)

Question: And the IC50 (A549 [1])?
Answer: > 50 µM

Question: And the IC50 (HepG2)?
Answer: 35.9 µM

Question: And the Tmax [8]?
Answer: 18.3 min

Question: And the MIC (Enterococcus faecalis)?
Answer: 128 µg/mL (≈ 271 µM)

Question: And the IC50 (LoVo [9])?
Answer: 1.17 µM

Question: What about the MIC (Streptococcus mutans) of the same compound?
Answer: 9.7 µg/mL

Question: And the Kel [10]?
Answer: 0.96 h⁻¹

Question: And the IC50 (BT-20)?
Answer: 11.8 µM

Question: What about the INH (A549 [11]) of the same compound?
Answer: 10 µM

Question: What about the Activity [3] of the same compound?
Answer: 149.47%

Question: What about the “inhibition (INH)” value (Toxoplasma gondii) of the same compound?
Answer: 64.8%

Question: For COC(=O)[C@]12CCC(C)(C)C[C@H]1C1=CC[C@@H]3[C@@]4(C)C=C(C#N)C(=O)[C@@](C)(CO)[C@@H]4CC[C@@]3(C)[C@]1(C)CC2, which EC50 (T47D) is on record?
Answer: 3.91 µM

Question: And the Activity (RAW264.7 [12])?
Answer: 1.6 µM

Question: And the EC50 (A-431)?
Answer: 1.7 µM

Question: What about the EC50 (A549 [13]) of the same compound?
Answer: 7.94 µM

Question: What about the EC50 (HT-1080) of the same compound?
Answer: 3.03 µM

Question: What about the EC50 (MCF7) of the same compound?
Answer: 2.25 µM

Question: And the EC50 (HL-60)?
Answer: 0.548 µM

Question: For CC1(C)CC[C@]2(C(=O)OCc3ccccc3)CC[C@]3(C)C(=CC[C@@H]4[C@@]5(C)CC[C@@H]6O[C@H]([C@H](OCc7ccccc7)[C@@H](OCc7ccccc7)[C@H](COCc7ccccc7)OCc7ccccc7)OC[C@@]6(C)[C@@H]5CC[C@]43C)[C@@H]2C1, which EC50 (Leishmania mexicana) is on record?
Answer: 4.5 µM

Question: For O=c1[nH]cc(F)c(=O)[nH]1 [FLUOROURACIL], which IC50 (HepG2) is on record?
Answer: 16.4 µM

Question: For COC(=O)[C@]12CCC(C)(C)C[C@H]1C1/C(=N/O)C[C@@H]3[C@@]4(C)CC[C@H](OC(C)=O)[C@@](C)(COC(C)=O)[C@@H]4CC[C@@]3(C)[C@]1(C)CC2 (some centres undefined), which IC50 [14] is on record?
Answer: 21.2 µM

Question: And the IC50 (HepG2)?
Answer: 1.88 µM

Question: For COC(=O)[C@]12CCC(C)(C)C[C@H]1C1=CC[C@@H]3[C@@]4(C)CC[C@@H]5O[C@H](c6ccccc6)OC[C@@]5(C)[C@@H]4CC[C@@]3(C)[C@]1(C)CC2, which EC50 (Leishmania mexicana) is on record?
Answer: 2.9 µM

Question: For C[C@@H]1O[C@@H](O[C@H]2[C@H](O[C@H]3CC[C@@]4(C)[C@@H](CC[C@]5(C)[C@@H]4CC=C4[C@@H]6CC(C)(C)CC[C@]6(C(=O)O)CC[C@]45C)[C@]3(C)CO)OC[C@H](O[C@@H]3O[C@H](CO)[C@@H](O)[C@H](O)[C@H]3O)[C@@H]2O)[C@H](O)[C@H](O)[C@H]1O [HEDERACOLCHISIDE A], which IC50 (A549 [15]) is on record?
Answer: 5.8 µM
